The values that follow come from article PMC7556876, “POMK regulates dystroglycan function via LARGE1-mediated elongation of matriglycan” (eLife, 2020).

For this assay, the target named is T1, POMK (Protein O-Mannose Kinase) (Danio rerio, UniProt Q5U3W1).
T1 construct: Purified Danio rerio POMK
Kind of assay: ligand-observed 1D 1H NMR titration (Man H1 peak intensity). The class given is binding.

Broadly, the Kd is a measure of binding affinity in units of concentration.

Structures are written as SMILES.

T1 sequence (Q5U3W1 whole entry): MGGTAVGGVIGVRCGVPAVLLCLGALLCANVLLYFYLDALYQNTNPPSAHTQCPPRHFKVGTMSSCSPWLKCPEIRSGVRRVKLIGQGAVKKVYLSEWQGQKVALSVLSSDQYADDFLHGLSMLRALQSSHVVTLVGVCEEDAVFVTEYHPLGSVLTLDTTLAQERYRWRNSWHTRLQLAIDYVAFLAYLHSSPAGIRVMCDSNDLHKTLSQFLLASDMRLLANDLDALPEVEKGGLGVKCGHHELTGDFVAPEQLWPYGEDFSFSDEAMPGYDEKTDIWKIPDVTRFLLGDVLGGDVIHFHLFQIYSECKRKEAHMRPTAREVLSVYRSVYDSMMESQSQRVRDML

In turn, `CC(=O)N[C@H]1[C@H](O[C@H]2[C@H](O)[C@@H](CO)O[C@@H](O[C@H]3[C@H](O)[C@H](O)[C@@H](Oc4ccc5c(C)cc(=O)oc5c4)O[C@@H]3COP(=O)(O)O)[C@@H]2NC(C)=O)O[C@H](CO)[C@H](O)[C@@H]1O` [GGMp-MU] registered a Kd of more than 500 µM.
